ChEMBL document CHEMBL5465560, “Selectivity Literature for EUbOPEN Chemogenomic Library” (2024)

Assays:
[1] = molecular target: Histone-lysine N-methyltransferase 2A (Homo sapiens) (UniProt Q03164); details: at 10 µM
[2] = molecular target: T1, Tyrosine-protein kinase Mer (Homo sapiens) (UniProt Q12866); test: Selectivity interaction (Kinase panel (DSF assay)) EUB0001559a MERTK
T1 sequence (whole entry): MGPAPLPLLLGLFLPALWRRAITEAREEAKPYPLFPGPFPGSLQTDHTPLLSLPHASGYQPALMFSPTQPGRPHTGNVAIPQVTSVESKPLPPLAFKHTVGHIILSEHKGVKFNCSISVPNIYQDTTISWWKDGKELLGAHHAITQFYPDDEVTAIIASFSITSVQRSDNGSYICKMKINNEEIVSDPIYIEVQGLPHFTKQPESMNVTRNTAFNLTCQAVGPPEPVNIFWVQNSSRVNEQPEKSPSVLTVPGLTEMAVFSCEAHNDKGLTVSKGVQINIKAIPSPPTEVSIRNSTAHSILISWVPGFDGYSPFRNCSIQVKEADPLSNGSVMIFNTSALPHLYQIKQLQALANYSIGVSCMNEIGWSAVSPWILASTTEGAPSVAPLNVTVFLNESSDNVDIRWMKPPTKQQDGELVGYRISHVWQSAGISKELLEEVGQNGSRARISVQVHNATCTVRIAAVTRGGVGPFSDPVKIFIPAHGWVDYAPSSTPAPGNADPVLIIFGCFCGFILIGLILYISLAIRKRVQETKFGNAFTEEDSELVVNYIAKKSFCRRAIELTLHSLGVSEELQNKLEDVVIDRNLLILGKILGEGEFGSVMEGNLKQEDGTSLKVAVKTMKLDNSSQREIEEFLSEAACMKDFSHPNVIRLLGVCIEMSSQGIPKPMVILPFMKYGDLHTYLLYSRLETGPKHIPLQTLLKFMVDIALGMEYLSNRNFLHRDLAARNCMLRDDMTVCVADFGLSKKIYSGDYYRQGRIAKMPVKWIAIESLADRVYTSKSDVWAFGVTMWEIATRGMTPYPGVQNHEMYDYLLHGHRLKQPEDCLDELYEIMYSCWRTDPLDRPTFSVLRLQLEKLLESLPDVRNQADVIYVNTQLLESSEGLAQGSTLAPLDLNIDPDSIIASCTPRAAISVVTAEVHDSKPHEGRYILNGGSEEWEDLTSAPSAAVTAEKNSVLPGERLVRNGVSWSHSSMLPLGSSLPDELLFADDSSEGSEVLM

[3] = molecular target: Death-associated protein kinase 1 (Homo sapiens, UniProt P53355); test: Selectivity interaction (Kinase panel (Invitrogen)) EUB0000639a DAPK1; details: at 200 nM
Sequence of Death-associated protein kinase 1 (P53355 whole entry, looked up): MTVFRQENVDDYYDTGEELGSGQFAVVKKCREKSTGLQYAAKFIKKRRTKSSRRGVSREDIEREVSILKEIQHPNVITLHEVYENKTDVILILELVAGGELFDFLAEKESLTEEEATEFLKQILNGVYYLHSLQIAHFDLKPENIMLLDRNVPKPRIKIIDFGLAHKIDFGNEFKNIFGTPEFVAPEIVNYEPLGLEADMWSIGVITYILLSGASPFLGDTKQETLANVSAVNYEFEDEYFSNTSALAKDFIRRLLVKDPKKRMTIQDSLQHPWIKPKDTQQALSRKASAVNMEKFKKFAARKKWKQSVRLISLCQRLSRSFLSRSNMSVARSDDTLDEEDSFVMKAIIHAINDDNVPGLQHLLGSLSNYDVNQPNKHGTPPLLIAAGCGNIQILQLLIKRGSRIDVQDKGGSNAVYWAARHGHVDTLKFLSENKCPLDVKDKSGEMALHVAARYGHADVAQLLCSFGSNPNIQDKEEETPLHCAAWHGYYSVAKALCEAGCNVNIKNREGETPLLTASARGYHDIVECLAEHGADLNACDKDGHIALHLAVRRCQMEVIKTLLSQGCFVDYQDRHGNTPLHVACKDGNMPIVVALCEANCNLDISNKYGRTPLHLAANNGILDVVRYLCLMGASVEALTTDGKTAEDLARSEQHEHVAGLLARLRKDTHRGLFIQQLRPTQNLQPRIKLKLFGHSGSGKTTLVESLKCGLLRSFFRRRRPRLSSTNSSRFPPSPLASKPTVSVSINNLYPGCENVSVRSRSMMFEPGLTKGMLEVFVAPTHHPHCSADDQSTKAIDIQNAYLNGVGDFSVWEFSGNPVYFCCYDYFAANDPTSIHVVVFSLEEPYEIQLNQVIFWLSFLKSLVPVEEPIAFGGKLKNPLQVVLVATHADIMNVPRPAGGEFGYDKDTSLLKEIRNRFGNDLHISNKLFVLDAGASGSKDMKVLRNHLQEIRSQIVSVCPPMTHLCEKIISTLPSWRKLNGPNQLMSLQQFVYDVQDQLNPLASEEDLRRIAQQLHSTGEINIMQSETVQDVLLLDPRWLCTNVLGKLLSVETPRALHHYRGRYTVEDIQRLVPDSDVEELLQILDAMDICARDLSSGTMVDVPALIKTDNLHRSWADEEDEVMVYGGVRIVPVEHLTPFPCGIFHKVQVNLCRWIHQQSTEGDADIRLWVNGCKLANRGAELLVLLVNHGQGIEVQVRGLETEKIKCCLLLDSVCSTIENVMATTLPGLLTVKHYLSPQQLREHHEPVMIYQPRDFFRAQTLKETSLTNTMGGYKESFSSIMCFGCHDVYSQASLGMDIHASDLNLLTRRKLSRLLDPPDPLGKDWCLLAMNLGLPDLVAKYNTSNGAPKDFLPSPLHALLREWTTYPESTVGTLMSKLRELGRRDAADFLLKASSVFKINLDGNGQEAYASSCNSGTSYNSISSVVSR

[4] = molecular target: T2, Serine/threonine-protein kinase greatwall (Homo sapiens) (UniProt Q96GX5); test: Selectivity interaction (ActivX KiNativ screen (kinase selectivity in THP-1 cell lysates)) EUB0000639a MASTL; format: subcellular; details: lysate, at 5 µM
T2 sequence (whole entry): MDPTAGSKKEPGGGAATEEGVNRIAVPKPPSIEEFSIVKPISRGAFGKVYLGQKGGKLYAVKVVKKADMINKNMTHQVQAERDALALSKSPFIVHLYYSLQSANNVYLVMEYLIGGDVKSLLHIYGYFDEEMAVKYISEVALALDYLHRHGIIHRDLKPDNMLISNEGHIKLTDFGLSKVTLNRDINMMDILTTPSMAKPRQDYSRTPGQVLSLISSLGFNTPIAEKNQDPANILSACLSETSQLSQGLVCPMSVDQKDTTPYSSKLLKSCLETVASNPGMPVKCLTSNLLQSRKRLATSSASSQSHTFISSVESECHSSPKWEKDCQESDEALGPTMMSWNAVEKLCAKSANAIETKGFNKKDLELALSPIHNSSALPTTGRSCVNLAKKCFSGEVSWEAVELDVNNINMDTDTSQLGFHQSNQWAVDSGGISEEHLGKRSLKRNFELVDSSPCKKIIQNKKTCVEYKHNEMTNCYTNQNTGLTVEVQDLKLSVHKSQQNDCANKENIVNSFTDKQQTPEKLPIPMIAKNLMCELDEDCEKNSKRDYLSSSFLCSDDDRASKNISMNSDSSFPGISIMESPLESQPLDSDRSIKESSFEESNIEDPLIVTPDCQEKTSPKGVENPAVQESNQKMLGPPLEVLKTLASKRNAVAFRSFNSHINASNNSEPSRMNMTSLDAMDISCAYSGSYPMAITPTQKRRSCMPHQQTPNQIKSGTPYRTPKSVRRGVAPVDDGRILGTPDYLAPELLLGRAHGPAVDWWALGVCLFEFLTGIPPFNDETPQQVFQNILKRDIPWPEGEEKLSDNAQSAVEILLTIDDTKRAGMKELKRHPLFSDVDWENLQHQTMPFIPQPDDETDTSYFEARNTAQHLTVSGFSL

[5] = molecular target: N-lysine methyltransferase SMYD2 (Homo sapiens) (UniProt Q9NRG4); test: Selectivity interaction (Methyltransferase screen (Scintillation proximity assays)) EUB0000255b SMYD2
Sequence of N-lysine methyltransferase SMYD2 (Homo sapiens) (Q9NRG4 whole entry): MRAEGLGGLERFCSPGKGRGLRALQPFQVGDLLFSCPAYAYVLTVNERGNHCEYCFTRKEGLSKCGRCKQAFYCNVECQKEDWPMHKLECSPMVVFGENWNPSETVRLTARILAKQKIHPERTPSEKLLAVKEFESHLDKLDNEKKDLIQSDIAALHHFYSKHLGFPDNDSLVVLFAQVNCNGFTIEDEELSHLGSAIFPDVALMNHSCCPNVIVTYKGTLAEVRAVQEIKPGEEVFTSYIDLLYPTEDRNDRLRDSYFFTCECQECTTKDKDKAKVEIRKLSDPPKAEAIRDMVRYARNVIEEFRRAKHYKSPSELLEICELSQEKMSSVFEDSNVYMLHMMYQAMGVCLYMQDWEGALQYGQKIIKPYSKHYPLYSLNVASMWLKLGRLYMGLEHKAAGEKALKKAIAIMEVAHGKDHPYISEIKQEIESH

[6] = molecular target: Activated CDC42 kinase 1 (Homo sapiens, UniProt Q07912); test: Selectivity interaction (KinomeScan (DiscoverX)) EUB0001619a TNK2; details: at 1 µM
Sequence of Activated CDC42 kinase 1 (Q07912 whole entry, looked up): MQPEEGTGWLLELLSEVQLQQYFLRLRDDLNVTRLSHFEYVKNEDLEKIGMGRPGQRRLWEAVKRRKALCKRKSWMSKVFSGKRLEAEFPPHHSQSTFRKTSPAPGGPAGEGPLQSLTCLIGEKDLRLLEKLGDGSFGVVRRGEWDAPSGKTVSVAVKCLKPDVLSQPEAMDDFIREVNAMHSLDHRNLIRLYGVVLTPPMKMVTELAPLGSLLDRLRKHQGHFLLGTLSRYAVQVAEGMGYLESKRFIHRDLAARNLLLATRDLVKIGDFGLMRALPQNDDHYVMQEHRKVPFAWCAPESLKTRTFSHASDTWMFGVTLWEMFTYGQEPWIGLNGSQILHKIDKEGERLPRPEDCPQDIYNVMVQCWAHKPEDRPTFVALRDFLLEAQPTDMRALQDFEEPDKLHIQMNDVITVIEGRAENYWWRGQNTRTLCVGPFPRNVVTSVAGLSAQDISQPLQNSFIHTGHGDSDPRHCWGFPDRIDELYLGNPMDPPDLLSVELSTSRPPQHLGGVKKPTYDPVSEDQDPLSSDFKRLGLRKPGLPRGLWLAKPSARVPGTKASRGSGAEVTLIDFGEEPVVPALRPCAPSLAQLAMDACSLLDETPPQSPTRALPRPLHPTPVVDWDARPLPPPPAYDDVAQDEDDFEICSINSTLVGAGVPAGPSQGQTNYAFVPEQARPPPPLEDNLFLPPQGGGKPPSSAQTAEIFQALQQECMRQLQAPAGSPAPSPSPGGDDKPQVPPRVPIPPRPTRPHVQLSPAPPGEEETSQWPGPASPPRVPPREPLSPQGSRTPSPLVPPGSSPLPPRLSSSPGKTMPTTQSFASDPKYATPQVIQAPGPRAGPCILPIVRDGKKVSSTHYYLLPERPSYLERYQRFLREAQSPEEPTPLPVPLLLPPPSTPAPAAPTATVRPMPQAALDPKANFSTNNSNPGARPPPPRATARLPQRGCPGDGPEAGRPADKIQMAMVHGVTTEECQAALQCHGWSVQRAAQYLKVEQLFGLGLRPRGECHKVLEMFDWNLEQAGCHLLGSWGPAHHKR

[7] = molecular target: T3, Megakaryocyte-associated tyrosine-protein kinase (Homo sapiens) (UniProt P42679); test: Selectivity interaction (KinomeScan (DiscoverX)) EUB0001619a MATK; details: at 1 µM
T3 sequence (whole entry): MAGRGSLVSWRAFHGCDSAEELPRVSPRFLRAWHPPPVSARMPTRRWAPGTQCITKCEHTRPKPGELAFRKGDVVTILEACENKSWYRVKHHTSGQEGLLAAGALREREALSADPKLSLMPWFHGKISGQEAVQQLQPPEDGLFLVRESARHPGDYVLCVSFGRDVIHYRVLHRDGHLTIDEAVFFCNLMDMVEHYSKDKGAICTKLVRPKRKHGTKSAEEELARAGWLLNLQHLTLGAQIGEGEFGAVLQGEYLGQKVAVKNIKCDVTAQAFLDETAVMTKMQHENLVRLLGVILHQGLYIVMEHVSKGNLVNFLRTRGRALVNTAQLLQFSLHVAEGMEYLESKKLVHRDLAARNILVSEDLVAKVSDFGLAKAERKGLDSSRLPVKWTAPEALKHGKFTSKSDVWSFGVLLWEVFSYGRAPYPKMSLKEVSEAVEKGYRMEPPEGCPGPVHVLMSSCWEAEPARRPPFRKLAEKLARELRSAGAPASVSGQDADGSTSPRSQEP

[8] = molecular target: Serine/threonine-protein kinase N2 (Homo sapiens, UniProt Q16513); test: Selectivity interaction (KinomeScan (DiscoverX)) EUB0000655a PKN2; details: at 10 µM
Sequence of Serine/threonine-protein kinase N2 (Q16513 whole entry, looked up): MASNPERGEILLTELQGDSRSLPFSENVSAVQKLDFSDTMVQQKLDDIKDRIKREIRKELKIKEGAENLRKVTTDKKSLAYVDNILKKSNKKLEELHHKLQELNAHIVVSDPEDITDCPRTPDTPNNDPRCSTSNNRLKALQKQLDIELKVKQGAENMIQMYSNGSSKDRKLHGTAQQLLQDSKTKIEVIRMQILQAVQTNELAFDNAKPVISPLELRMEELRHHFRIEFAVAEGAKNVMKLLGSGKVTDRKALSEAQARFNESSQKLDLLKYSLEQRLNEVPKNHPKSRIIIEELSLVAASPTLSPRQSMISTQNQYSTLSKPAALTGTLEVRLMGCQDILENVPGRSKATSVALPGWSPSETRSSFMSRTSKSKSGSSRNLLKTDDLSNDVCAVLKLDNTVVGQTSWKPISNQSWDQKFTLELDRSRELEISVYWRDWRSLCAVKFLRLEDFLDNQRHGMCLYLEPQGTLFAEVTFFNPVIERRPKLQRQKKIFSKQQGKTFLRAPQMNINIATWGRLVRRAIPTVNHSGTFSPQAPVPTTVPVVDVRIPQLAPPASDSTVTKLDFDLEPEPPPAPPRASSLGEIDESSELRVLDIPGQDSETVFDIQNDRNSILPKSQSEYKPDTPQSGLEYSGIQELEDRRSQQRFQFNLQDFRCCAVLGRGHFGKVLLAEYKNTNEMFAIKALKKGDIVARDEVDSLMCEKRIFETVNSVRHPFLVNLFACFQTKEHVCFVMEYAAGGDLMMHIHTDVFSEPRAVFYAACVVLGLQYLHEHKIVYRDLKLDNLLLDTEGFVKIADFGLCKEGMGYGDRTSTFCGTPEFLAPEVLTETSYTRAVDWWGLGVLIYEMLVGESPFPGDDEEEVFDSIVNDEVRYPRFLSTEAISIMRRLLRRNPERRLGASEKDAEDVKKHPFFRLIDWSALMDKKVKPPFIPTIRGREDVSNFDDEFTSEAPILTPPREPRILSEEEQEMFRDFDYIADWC

## CNCCN1CCC(c2cc(CN(C)C(=O)c3cccc(Oc4ccccc4)c3)ccn2)CC1
[1]
  % activity: > 90%

## CN(C(=O)c1cnn2cccnc12)c1cc2c(cc1N1CCOCC1)C(=O)N(C[C@@H](F)C(C)(C)O)C2
[2]
  dTM: 0.3 K

## CC[C@@H]1[C@H](F)C(=O)N[C@@H]1COc1nccc2cc(C(N)=O)c(OC)cc12 [ZIMLOVISERTIB]
[3]
  % of inhibition: 16.2%
[4]
  % of inhibition: 77.2%

## COCCN1CCC(c2cc(CN(C)C(=O)c3cccc(Oc4ccccc4)c3)ccn2)CC1
[5]; at 1 µM
  % activity: > 95%
[5]; at 10 µM
  % activity: > 90%

## N#Cc1cccc(-c2c[nH]c3ncnc(N4CCOCC4)c23)c1
[6]
  % of control: 98%
[7]
  % of control: 82%

## CN(C)CCOc1ccc(-c2nc(-c3ccncc3)c(-c3ccc4c(c3)CC/C4=N\O)[nH]2)cc1
[8]
  % of control: 100%
